Test results published in patent US20180008573A1, “METHODS AND COMPOSITIONS FOR REDUCING DAMAGE ASSOCIATED WITH OXIDATIVE PHOSPHORYLATION” (USANA Health Sciences, Inc., priority 2016, published 2018).
Marks after values point to notes of the source that are not given here.

How the values were obtained:
NF-κB reporter cells = test: Live cell multiplex assay in the NF-κB antagonist assay; type: cell-based, human
Description: A vehicle control was prepared.

human PPARα = target: T1, human PPARα (Homo sapiens, UniProt Q07869); test: PPARα agonist reporter assay (Gal4 hybrid receptor, luciferase, CHO cells); type: cell-based
T1 construct: expressed in transfected cells; host or cells: CHO
T1 sequence (Q07869 239-466 limits assumed): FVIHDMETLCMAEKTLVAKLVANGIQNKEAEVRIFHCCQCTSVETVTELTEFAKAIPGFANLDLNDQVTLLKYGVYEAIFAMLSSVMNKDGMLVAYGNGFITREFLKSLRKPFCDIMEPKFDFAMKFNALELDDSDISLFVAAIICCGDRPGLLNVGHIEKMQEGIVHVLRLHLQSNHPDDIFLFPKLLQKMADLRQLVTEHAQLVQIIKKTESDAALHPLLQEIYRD

human PPARδ = target: T2, human PPARδ (Homo sapiens, UniProt Q03181); test: PPARδ agonist reporter assay (Gal4 hybrid receptor, luciferase, CHO cells); type: cell-based
T2 construct: expressed in transfected cells; host or cells: CHO
T2 sequence (Q03181 211-439 limits assumed): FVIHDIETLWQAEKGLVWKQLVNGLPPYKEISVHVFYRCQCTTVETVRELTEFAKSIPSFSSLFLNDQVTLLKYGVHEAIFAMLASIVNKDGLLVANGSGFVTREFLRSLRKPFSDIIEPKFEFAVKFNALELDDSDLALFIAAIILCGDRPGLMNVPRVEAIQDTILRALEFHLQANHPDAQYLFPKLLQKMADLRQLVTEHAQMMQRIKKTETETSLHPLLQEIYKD

Nrf2 = target: T3, Nrf2 (Homo sapiens, UniProt Q16236); test: Nrf2 agonist reporter assay (native receptor, ARE-luciferase, CV1 cells); type: cell-based; set-up: comprising either the native receptor (Nrf2 and NF-κB); expressed in transfected cells; host or cells: CV1
T3 sequence (Q16236 1-605): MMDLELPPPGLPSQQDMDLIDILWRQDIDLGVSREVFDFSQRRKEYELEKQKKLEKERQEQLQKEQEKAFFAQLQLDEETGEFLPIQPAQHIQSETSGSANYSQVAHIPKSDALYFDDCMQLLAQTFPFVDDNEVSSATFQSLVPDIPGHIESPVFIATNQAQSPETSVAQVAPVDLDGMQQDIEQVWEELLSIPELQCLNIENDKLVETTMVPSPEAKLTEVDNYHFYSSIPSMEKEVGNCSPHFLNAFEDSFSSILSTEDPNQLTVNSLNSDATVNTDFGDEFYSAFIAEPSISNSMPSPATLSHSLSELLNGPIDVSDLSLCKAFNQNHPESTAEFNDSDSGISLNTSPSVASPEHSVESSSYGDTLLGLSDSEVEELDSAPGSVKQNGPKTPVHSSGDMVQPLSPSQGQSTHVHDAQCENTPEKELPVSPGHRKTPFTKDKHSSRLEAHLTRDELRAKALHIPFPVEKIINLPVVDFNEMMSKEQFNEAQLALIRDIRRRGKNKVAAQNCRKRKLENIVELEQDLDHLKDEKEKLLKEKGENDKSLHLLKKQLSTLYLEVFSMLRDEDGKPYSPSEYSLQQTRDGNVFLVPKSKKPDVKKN

human NF-κB = test: NF-κB antagonist reporter assay (NF-κB GRE-luciferase, HEK293 cells); type: cell-based;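 further: reporter cells carry native NF-κB receptor with firefly luciferase under upstream response elements, with a vehicle control included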
human PPARγ = target: T4, human PPARγ (Homo sapiens, UniProt P37231); test: PPARγ agonist reporter assay (Gal4 hybrid receptor, luciferase, CHO cells); type: cell-based
T4 construct: expressed in transfected cells; host or cells: CHO
T4 sequence (P37231 238-503 limits assumed): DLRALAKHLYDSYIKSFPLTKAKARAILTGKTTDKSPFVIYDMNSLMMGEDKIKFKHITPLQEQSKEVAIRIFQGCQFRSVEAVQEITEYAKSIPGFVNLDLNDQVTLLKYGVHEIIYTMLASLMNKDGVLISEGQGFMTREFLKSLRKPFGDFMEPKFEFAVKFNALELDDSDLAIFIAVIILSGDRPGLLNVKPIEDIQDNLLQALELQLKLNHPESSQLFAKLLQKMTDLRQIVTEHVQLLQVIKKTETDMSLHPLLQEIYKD

## COc1cc(/C=C/C(=O)CC(=O)/C=C/c2ccc(O)c(OC)c2)ccc1O [Curcumin, curcumin]
NF-κB reporter cells; 0.007 μg/ml active ingredient
  NF-κB % Live Cell: 105%
NF-κB reporter cells; 0.022 μg/ml active ingredient
  NF-κB % Live Cell: 105%
NF-κB reporter cells; 0.067 μg/ml active ingredient
  NF-κB % Live Cell: 106%
NF-κB reporter cells; 0.20 μg/ml active ingredient
  NF-κB % Live Cell: 105%
NF-κB reporter cells; 0.60 μg/ml active ingredient
  NF-κB % Live Cell: 99%
NF-κB reporter cells; 1.81 μg/ml active ingredient
  NF-κB % Live Cell: 97%
Human PPARα; 0.007 μg/ml active ingredient
  PPARα Fold-Activation: 1.3 fold
Human PPARα; 0.022 μg/ml active ingredient
  PPARα Fold-Activation: 1.3 fold
Human PPARα; 0.067 μg/ml active ingredient
  PPARα Fold-Activation: 1.3 fold
Human PPARα; 0.20 μg/ml active ingredient
  PPARα Fold-Activation: 1.1 fold
Human PPARα; 0.60 μg/ml active ingredient
  PPARα Fold-Activation: 1.0 fold
Human PPARα; 1.81 μg/ml active ingredient
  PPARα Fold-Activation: 0.86 fold
Human PPARδ; 0.007 μg/ml active ingredient
  PPARδ Fold-Activation: 1.2 fold
Human PPARδ; 0.022 μg/ml active ingredient
  PPARδ Fold-Activation: 1.2 fold
Human PPARδ; 0.067 μg/ml active ingredient
  PPARδ Fold-Activation: 1.0 fold
Human PPARδ; 0.20 μg/ml active ingredient
  PPARδ Fold-Activation: 1.2 fold
Human PPARδ; 0.60 μg/ml active ingredient
  PPARδ Fold-Activation: 1.3 fold
Human PPARδ; 1.81 μg/ml active ingredient
  PPARδ Fold-Activation: 1.0 fold
Nrf2; 0.007 μg/ml active ingredient
  Nrf2 Fold-Activation: 1.6 fold
Nrf2; 0.022 μg/ml active ingredient
  Nrf2 Fold-Activation: 1.7 fold
Nrf2; 0.067 μg/ml active ingredient
  Nrf2 Fold-Activation: 1.4 fold
Nrf2; 0.20 μg/ml active ingredient
  Nrf2 Fold-Activation: 0.96 fold
Nrf2; 0.60 μg/ml active ingredient
  Nrf2 Fold-Activation: 1.0 fold
Nrf2; 1.81 μg/ml active ingredient
  Nrf2 Fold-Activation: 1.6 fold
Human NF-κB; 0.007 μg/ml active ingredient
  NF-κB % Inhibition: −10%
Human NF-κB; 0.022 μg/ml active ingredient
  NF-κB % Inhibition: −3.4%
Human NF-κB; 0.067 μg/ml active ingredient
  NF-κB % Inhibition: −0.29%
Human NF-κB; 0.20 μg/ml active ingredient
  NF-κB % Inhibition: 22%
Human NF-κB; 0.60 μg/ml active ingredient
  NF-κB % Inhibition: 30%
Human NF-κB; 1.81 μg/ml active ingredient
  NF-κB % Inhibition: 51** %
Human NF-κB; at the concentrations tested
  antagonist activity against human NF-κB: very low-level antagonist activity
Human PPARγ; 0.007 μg/ml active ingredient
  PPARγ Fold-Activation: 1.0 fold
Human PPARγ; 0.022 μg/ml active ingredient
  PPARγ Fold-Activation: 1.0 fold
Human PPARγ; 0.067 μg/ml active ingredient
  PPARγ Fold-Activation: 0.95 fold
Human PPARγ; 0.20 μg/ml active ingredient
  PPARγ Fold-Activation: 0.96 fold
Human PPARγ; 0.60 μg/ml active ingredient
  PPARγ Fold-Activation: 0.90 fold
Human PPARγ; 1.81 μg/ml active ingredient
  PPARγ Fold-Activation: 1.1 fold

## COc1ccc([C@@H]2CC(=O)c3c(O)cc(O)cc3O2)cc1O [Hesperetin, (S)-2,3-Dihydro-5,7-dihydroxy-2-(3-hydroxy-4-methoxyphenyl)-4H-1-benzopyran-4-one]
NF-κB reporter cells; 0.043 μg/ml active ingredient
  NF-κB % Live Cell: 98%
NF-κB reporter cells; 0.389 μg/ml active ingredient
  NF-κB % Live Cell: 99%
NF-κB reporter cells; 1.167 μg/ml active ingredient
  NF-κB % Live Cell: 98%
NF-κB reporter cells; 3.5 μg/ml active ingredient
  NF-κB % Live Cell: 96%
Human PPARα; 0.043 μg/ml active ingredient
  PPARα Fold-Activation: 1.4 fold
Human PPARα; 0.389 μg/ml active ingredient
  PPARα Fold-Activation: 1.2 fold
Human PPARα; 1.167 μg/ml active ingredient
  PPARα Fold-Activation: 1.0 fold
Human PPARα; 3.5 μg/ml active ingredient
  PPARα Fold-Activation: 0.79 fold
Human PPARδ; 0.043 μg/ml active ingredient
  PPARδ Fold-Activation: 1.1 fold
Human PPARδ; 0.389 μg/ml active ingredient
  PPARδ Fold-Activation: 1.0 fold
Human PPARδ; 1.167 μg/ml active ingredient
  PPARδ Fold-Activation: 1.1 fold
Human PPARδ; 3.5 μg/ml active ingredient
  PPARδ Fold-Activation: 0.89 fold
Nrf2; 0.043 μg/ml active ingredient
  Nrf2 Fold-Activation: 1.4 fold
Nrf2; 0.389 μg/ml active ingredient
  Nrf2 Fold-Activation: 1.3 fold
Nrf2; 1.167 μg/ml active ingredient
  Nrf2 Fold-Activation: 1.5 fold
Nrf2; 3.5 μg/ml active ingredient
  Nrf2 Fold-Activation: 0.94 fold
Human NF-κB; 0.043 μg/ml active ingredient
  NF-κB % Inhibition: −11%
Human NF-κB; 0.389 μg/ml active ingredient
  NF-κB % Inhibition: −2.1%
Human NF-κB; 1.167 μg/ml active ingredient
  NF-κB % Inhibition: 14%
Human NF-κB; 3.5 μg/ml active ingredient
  NF-κB % Inhibition: 39%
Human PPARγ; 0.043 μg/ml active ingredient
  PPARγ Fold-Activation: 1.0 fold
Human PPARγ; 0.389 μg/ml active ingredient
  PPARγ Fold-Activation: 1.1 fold
Human PPARγ; 1.167 μg/ml active ingredient
  PPARγ Fold-Activation: 1.1 fold
Human PPARγ; 3.5 μg/ml active ingredient
  PPARγ Fold-Activation: 0.55 fold
